Source: PubChem BioAssay (NCI)
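Values below derive from 48-hour exposures of cells grown in 96-well plates, with endpoints linearly interpolated between the two concentrations bracketing the appropriate inhibition level. At the GI50, growth is halved. TGI marks complete inhibition of growth.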

Columns and labels:
Experiment in all cases: NCI tumour cell line growth inhibition, 48 h
OVCAR-3 ovarian = test system: OVCAR-3 ovarian
HT29 colon = test system: HT29 colon
M14 melanoma = test system: M14 melanoma
SF-295 CNS = test system: SF-295 CNS
MDA-MB-435 = test system: MDA-MB-435
HOP-62 NSCLC = test system: HOP-62 NSCLC
LOX IMVI melanoma = test system: LOX IMVI melanoma
U251 CNS = test system: U251 CNS

SMILES | GI50 (OVCAR-3 ovarian) | TGI (OVCAR-3 ovarian) | GI50 (HT29 colon) | TGI (HT29 colon) | GI50 (M14 melanoma) | TGI (M14 melanoma) | GI50 (SF-295 CNS) | TGI (SF-295 CNS) | GI50 (MDA-MB-435) | TGI (MDA-MB-435) | GI50 (HOP-62 NSCLC) | TGI (HOP-62 NSCLC) | GI50 (LOX IMVI melanoma) | TGI (LOX IMVI melanoma) | GI50 (U251 CNS) | TGI (U251 CNS)
COc1ccc2sc3cccc(NCCN(C)C)c3c(=O)c2c1 | 4.65 µM | 16.5 µM | 2.03 µM | 4.6 µM | 2 µM | 4.1 µM | 4.61 µM | 17.5 µM | 2.03 µM | 5.07 µM | 3.57 µM | 10.7 µM |  |  |  | 
COC(=O)[C@@H](C)C[C@H](Cc1cn(C)c2ccccc12)NC(=O)c1csc([C@@H](C[C@H](C(C)C)N(C)C(=O)[C@@H](NC(=O)[C@H]2CCCCN2C)C(C)C)OC(C)=O)n1 | 0.0051 µM |  | 0.00632 µM | > 6.31 µM | 0.0121 µM | 0.645 µM | 0.024 µM | > 16.7 µM | 0.00215 µM | 0.00856 µM | 0.0133 µM | > 16.7 µM | 0.011 µM | > 16.7 µM | 0.0102 µM | > 16.7 µM
CCOC(=O)c1ccccc1OC(=O)NNc1ccccc1 | 16.3 µM | > 100 µM | > 100 µM | > 100 µM |  | > 100 µM | 0.333 µM | > 37.4 µM | 0.531 µM | > 100 µM | > 84.2 µM | > 100 µM | 5 µM | > 100 µM | > 35.6 µM | > 100 µM
CCN(CC)CCNc1ccc(C)c2sc3cc(Cl)ccc3c(=O)c12 | 1.73 µM | 3.23 µM | 1.94 µM | 3.48 µM | 1.8 µM | 3.4 µM | 1.67 µM | 3.16 µM | 1.7 µM | 3.14 µM | 1.44 µM | 2.9 µM | 1.58 µM | 3.01 µM | 1.73 µM | 3.22 µM
NS(=O)(=O)OCC1OC(n2cnc3cncnc32)C(O)C1O (centres undefined) | 0.035 µM | 0.297 µM | 0.0275 µM | 0.105 µM | 0.03 µM | 0.0944 µM | 0.0279 µM | 0.12 µM | 0.0284 µM | 0.0845 µM | < 0.01 µM | 0.0143 µM | 0.0228 µM | 0.0548 µM | 0.022 µM | 0.0749 µM
COC1C(CO)OC(n2c3ccccc3c3c4c(c5c6ccccc6[nH]c5c32)C(=O)NC4=O)C(O)C1O (centres undefined) | 0.0785 µM | 0.369 µM | 0.23 µM | > 37.7 µM | 0.0441 µM | 0.347 µM | 0.129 µM | 0.673 µM | 0.0633 µM | 0.901 µM | 0.0514 µM | 1.2 µM | < 0.01 µM | 0.0352 µM | < 0.01 µM | 0.141 µM
COc1cc2nccc(Oc3ccc(NC(=O)NC4CC4)c(Cl)c3)c2cc1C(N)=O | 23.1 µM | > 100 µM | > 100 µM | > 100 µM | 51 µM | > 100 µM | 23.4 µM | > 85.7 µM | > 100 µM | > 100 µM | 21.4 µM | 61.5 µM | 70.2 µM | > 100 µM | 11.5 µM | 42.8 µM
O=C(COc1ccc(/C=C2\COc3ccccc3C2=O)cc1)Nc1nccs1 | 2.73 µM | 5.81 µM | 3.7 µM | 12.9 µM | 6.71 µM | 20 µM | 3.1 µM | 12.8 µM | 3.56 µM | 18.4 µM | 16.8 µM | 33.1 µM | 2.64 µM | 7.33 µM | 6.29 µM | 19.1 µM
CCOC(=O)[C@@H](C)C[C@H](Cc1ccccc1)NC(=O)c1nc([C@@H](C[C@H](C(C)C)N(C)C(=O)[C@@H](NC(=O)[C@H]2CCCCN2C)C(C)C)OC(C)=O)sc1CCOCc1ccccc1 | 0.0396 µM |  | 0.0375 µM | 1.4 µM | 0.0689 µM | 0.727 µM | 0.0499 µM | 1.36 µM | 0.0123 µM | 0.0478 µM | 0.226 µM | 2.91 µM | 0.0609 µM | 1.54 µM | 0.0716 µM | 1.62 µM
O=C1c2[nH]cc(CNC3CN4CCC3CC4)c2C(=O)c2c1c(O)c1ccccc1c2O (centres undefined) | 1.01 µM | 2.22 µM | 12.5 µM | 38.3 µM | 3.11 µM | 11.7 µM | 2.05 µM | 3.62 µM | 1.4 µM | 2.76 µM | 1.11 µM | 2.43 µM | 1.05 µM | 2.31 µM | 1.21 µM | 2.58 µM
CCOC(=O)c1ccc(Nc2sc(C(=O)c3ccc(Br)cc3)c(N)c2C#N)cc1 | 0.364 µM | 2.19 µM | 0.447 µM | > 100 µM | 1.27 µM | > 100 µM | 0.478 µM | > 100 µM | 0.257 µM | 1.01 µM | 1.56 µM | > 100 µM | 1.64 µM | > 100 µM | 1.49 µM | > 100 µM
O=C(c1ccco1)c1nc2cc(C(F)(F)F)ccc2nc1C(F)(F)F | > 100 µM | > 100 µM | > 100 µM | > 100 µM | > 100 µM | > 100 µM | > 100 µM | > 100 µM | > 100 µM | > 100 µM | 71 µM | > 100 µM | > 100 µM | > 100 µM | > 100 µM | > 100 µM
CCCCCCCC/C=C/CCCCCCCC1=NC(C)(C)CN1CC(C)O (centres undefined) | 5.37 µM | 9.96 µM | 1.59 µM | 3.09 µM | 1.79 µM | 3.35 µM | 1.82 µM | 3.5 µM | 1.77 µM | 3.45 µM | 1.83 µM | 3.39 µM | 1.52 µM | 2.88 µM | 1.64 µM | 3.02 µM
COc1ccc(C(=O)Nc2ncc(Cc3cccc(Cl)c3)s2)cc1OC | 0.368 µM | 9.71 µM | 0.148 µM | > 100 µM | 0.0371 µM | > 100 µM | 0.0607 µM | 3.64 µM |  |  | 0.546 µM | > 100 µM | 0.0197 µM | > 100 µM | 0.505 µM | > 100 µM
Cc1ccc(Cl)cc1Nc1nc(C(F)(F)F)ccc1C(=O)N/N=C/c1cccnc1 | 2.45 µM | 14.3 µM | 5.73 µM | 20.7 µM | 1.44 µM | 3.92 µM | 1.38 µM | 4.51 µM | 3.99 µM | 15.7 µM | 4.28 µM | 18.5 µM | 1.52 µM | 13.6 µM | 2.14 µM | 11.7 µM
CCOC(=O)C1=C(C)N=c2s/c(=C\c3ccccc3O)c(=O)n2C1c1ccc(OC)c2ccccc12 (centres undefined) | 3.04 µM | 7.83 µM | 8.29 µM | 25.1 µM |  |  | 13.3 µM | 30 µM | 13.1 µM | > 100 µM | 4.65 µM | 14.6 µM | 2.44 µM | 5.65 µM | 2.35 µM | 6.58 µM
O=C1/C(=C\c2ccc(F)cc2)CN(C(=O)c2ccccc2)C/C1=C\c1ccc(F)cc1 |  |  | 1.67 µM | 4.34 µM | 2.05 µM | 4.65 µM |  |  | 2.11 µM | 5.65 µM | 3.07 µM | 8.5 µM | 1.41 µM | 3.18 µM | 1.65 µM | 3.76 µM
O=c1cc(-c2ccccc2)oc2ccc(OC/C(=N/O)c3ccccc3)cc12 | 1.23 µM | 3.93 µM | 2.02 µM | > 50 µM | > 50 µM | > 50 µM | 1.25 µM | 3.34 µM |  |  | 9.62 µM | > 50 µM | 2.76 µM | 20.2 µM | 2.35 µM | > 50 µM
C[C@]12CC[C@@H]3c4cc(OC(F)F)c(O)cc4CC[C@H]3[C@@H]1CC[C@@H]2OS(N)(=O)=O | 0.365 µM | 16.6 µM | 0.846 µM | 17.8 µM | 0.511 µM | 25.9 µM | 0.33 µM | 3.02 µM |  |  | 0.693 µM | 35.7 µM | 0.585 µM | 22.6 µM | 0.549 µM | 19.5 µM
CC[C@H]1CN2CCc3cc(OC)c(OC)cc3C2C[C@@H]1CC1NCCc2cc(OC)c(OC)cc21 (some centres undefined) |  | 0.197 µM |  | 0.0479 µM |  | 0.0487 µM |  |  | 0.0161 µM | 0.112 µM |  | 0.0815 µM |  | 0.0224 µM |  | 
Nc1ccccc1NC(=O)c1ccc(CNc2nccc(-c3cccnc3)n2)cc1 | 1.33 µM | 4.62 µM | 0.364 µM | 6.28 µM | 1.03 µM | 4.18 µM | 0.722 µM | > 100 µM | 0.299 µM | 1.25 µM | 1.34 µM | > 51.8 µM |  |  | 1.12 µM | 
Nc1cc(F)ccc1CC(=O)O |  |  |  | > 100 µM |  | > 100 µM |  | > 100 µM |  | > 100 µM |  | > 100 µM |  | > 100 µM |  | > 100 µM
CCC(CC)c1nc(Nc2ccc(C(=O)OC)cc2)c2ccccc2n1 | 5.7 µM | 21 µM |  |  | 10 µM | 21.6 µM | > 18.8 µM | > 26 µM | > 18.3 µM | > 25.6 µM | 10.4 µM | 21.6 µM | 11.1 µM | 31.7 µM | 8.5 µM | 19 µM
NCCCNc1nc2ccccc2c2c(=O)c3cc(F)cc(F)c3sc12 | 1.72 µM | 3.19 µM |  |  | 1.79 µM | 3.3 µM | 1.99 µM | 4.06 µM | 1.63 µM | 3.02 µM |  |  |  |  |  | 
